In patent US9394233B2, “ROS-activated compounds as selective anti-cancer therapeutics” (University of Cincinnati, priority 2012, dated 2016):
Where two headings read alike, the source gives them in different places.

Experiments:
HeLa cells = assay: HeLa cell viability, MTT assay; assay type: cell-based; details: Homo sapiens, 50% reduction in percent of viable HeLa cells, read-out: IC50 against HeLa Cells
Experimental: Table 1 sets forth ROS-Activated compounds of the present invention, together with their IC50 values corresponding to a 50% reduction in the percent of viable HeLa cells in vitro as measured via MTT assay.
All synthesized compounds were purified to greater than 98% purity prior to cell testing. HeLa cell viability assays were performed using an MTT assay.
The general structure of the ROS-activated compounds disclosed herein was probed to determine how positions in the structure alter potency in aqueous media. Compounds were screened against HeLa cells to determine IC50 values. Cell viability was monitored by an MTT dye that forms a purple formazan product in viable cells that are undergoing metabolism. […] Errors reported are between two separate experiments; independent curve-fitting had r greater than 0.95).

[1] = Oxidation and ROS-dependent hydrolysis of compound 3, monitored by reverse-phase HPLC; assay type: physicochemical
Excerpt: The oxidative and ROS-activation of the instantly disclosed compounds was investigated. Water, one of the simplest nucleophile substrates, was examined under different oxidative conditions (FIG. 5). A model ROS-activated compound, compound 3, was used to explore the chemical reactivity of these agents (FIG. 5A).
Hydrolysis of compound 3 as a function of time was quantified by separation of the reaction products by reverse-phase HPLC (FIG. 5B). […] To obtain quantifiable data, time points were taken daily over one week.
Addition of the one-electron oxidant, […], led to quantitative hydrolysis of compound 3 with a half-life of 0.4±0.2 hours (FIG. 5B). The oxidation potential of Ir(IV) is 0.7 volts vs. Ag/AgCl making it an appropriate choice for oxidation of hydroquinone derivatives. In additional to oxidation, cells produce reactive oxygen species in the forms of hydroxyl radical and singlet oxygen. Copper and hydrogen peroxide can be used to produce hydroxyl radical. […] The extent of hydrolysis was dependent on the hydrogen peroxide concentration and was slow due to lack of ascorbate (data not shown). Oxidases like horseradish peroxidase reduce molecular oxygen to either hydrogen peroxide or water and at the same time oxidize a substrate with an appropriate potential. The oxidation of compound 3 was difficult to measure via HPLC since after one minute approximately half (53±13%) of compound 3 was hydrolyzed.

Drosophila = Drosophila survival after microinjection, Ercc1 RNAi knockdown versus control; details: 0.5 μL of 10 mM injected
MOLT-4 = assay: NCI-60 Sulforhodamine B growth inhibition, MOLT-4; assay type: cell-based; details: Homo sapiens; MOLT-4, ALL model line
Experimental: (§1) Compounds 25 and 9 were evaluated for effects on the viability of the cell lines in the NCI-60 cell panel. […] Data is reported as growth inhibition GI50, rather than IC50, to reflect the change in cell counts relative to the starting number of cells.
(§2) Growth inhibition pattern induced by 25 and 9 based on the type of cancer was also analyzed. […] The majority of leukemia and renal cancer cell lines were above the median, indicating enhanced sensitivity to ROS-activating compounds. The current results further substantiate renal carcinoma as a potential target.

leukemia cell lines = assay: NCI-60 Sulforhodamine B growth inhibition, leukemia cell lines; assay type: cell-based; details: median in all leukemia cell lines tested
Experimental: as §1, §2

[2] = test system: human CD34+ blood stem/progenitor cells; assay: Cytotoxicity, MTT assay on CD34+ blood stem/progenitor cells; assay type: cell-based; details: normal blood stem cells, read-out: IC50 against CD34+ blood stem/progenitor cells
Excerpt: (§3) To assess the anti-cancer activity against AML, transformed cells were compared to closely related, non-transformed counterparts. In the case of AML, the generally accepted non-transformed cell of origin is the human CD34+ blood stem/progenitor cell. Assessing potency against normal blood stem cells is important since, without selective cytotoxicity, an agent will yield reduced efficacy and therapeutic potential. […] Therefore, a comparison of current agents and the ROS-activated compounds disclosed herein was carried out. (FIG. 3). Cytotoxicity was measured via MTT assay on CD34+ blood stem/progenitor cells (grey lines) and on the MA9.3 AML cell line (black lines), which was derived from the transformation of human CD34+ cells by introduction of the leukemia oncogene MLL-AF9.

[3] = test system: renal and CNS cancer cell lines; assay: Sulforhodamine B viability assay, renal and CNS cancer cell lines; assay type: cell-based; details: panels of renal and CNS cancer cell lines, errors less than 25%
MA9.3 AML cells = assay: AML cytotoxicity, MTT assay on MA9.3 AML cell line; assay type: cell-based, human; details: read-out: IC50 against MA9.3 AML cells
Excerpt: as §3

HL-60 = assay: NCI-60 Sulforhodamine B growth inhibition, HL-60; assay type: cell-based; details: Homo sapiens; HL-60, acute promyelocytic leukemia model
Experimental: as §1, §2

NCI-60 cell panel = assay: NCI-60 cell panel, Sulforhodamine B growth inhibition; assay type: cell-based; details: distribution of GI50 over NCI-60 panel
Experimental: as §1

CCRF-CEM = assay: NCI-60 Sulforhodamine B growth inhibition, CCRF-CEM; assay type: cell-based; details: Homo sapiens, ALL model line
Experimental: as §1, §2

RPMI-8226 = assay: NCI-60 Sulforhodamine B growth inhibition, RPMI-8226; assay type: cell-based; details: Homo sapiens; RPMI-8226, plasmacytoma and myeloma cell line
Experimental: as §1, §2

392-nucleotide dsDNA = assay: Primer extension assay on 392-nucleotide dsDNA (DNA modification); assay type: biochemical; details: dsDNA treated with agent; compound 25 followed by oxidative activation (Na2IrCl6)

| IC50 (HeLa cells) [µM] | SMILES | other results |
| --- | --- | --- |
| 30 | Oc1ccc(OCCNc2ccccc2)cc1 [Compound 1, 4-(2-(phenylamino)ethoxy)phenol] |  |
| 18 | CN(CCOc1ccc(O)cc1)c1ccccc1 [Compound 2, 4-(2-(methyl(phenyl)amino)ethoxy)phenol] |  |
| 53 | CC(C)N(CCOc1ccc(O)cc1)c1ccccc1 [Compound 4, 4-(2-(isopropyl(phenyl)amino)ethoxy)phenol] |  |
| 24 | COc1ccc(NCCOc2ccc(O)cc2)cc1 [Compound 5, 4-(2-((4-methoxyphenyl)amino)ethoxy)phenol] |  |
| 13 | COc1ccc(N(C)CCOc2ccc(O)cc2)cc1 [Compound 6, 4-(2-((4-methoxyphenyl)(methyl)amino)ethoxy)phenol] |  |
| 31 | Oc1ccc(OCCNc2ccc(Br)cc2)cc1 [Compound 7, 4-(2-((4-bromophenyl)amino)ethoxy)phenol] |  |
| 30 | CN(CCOc1ccc(O)cc1)Cc1ccccc1 [Compound 8, 4-(2-(benzyl(methyl)amino)ethoxy)phenol] |  |
| 7 | CN(CCCOc1ccc(O)cc1)c1ccccc1 [Compound 9, 4-(3-(methyl(phenyl)amino)propoxy)phenol] | GI50 (MOLT-4): 2 µM; GI50 (leukemia cell lines): 1.9 µM; IC50 ([2]; Homo sapiens): 5.4 ± 0.9 µM; IC50 [3]: micromolar range; IC50 (MA9.3 AML cells; Homo sapiens): 0.7 ± 0.2 µM; GI50 (HL-60): 0.9 µM; range of GI50 values (NCI-60 cell panel): 53 fold; GI50 (CCRF-CEM): 0.263 µM; GI50 (RPMI-8226): 1.2 µM |
| 16 | CCN(CCCOc1ccc(O)cc1)c1ccccc1 [Compound 10, 4-(3-(ethyl(phenyl)amino)propoxy)phenol] |  |
| 9 | CN(CCCCCOc1ccc(O)cc1)c1ccccc1 [Compound 13, 4-(5-(methyl(phenyl)amino)pentyloxy)phenol] |  |
| 46 | CCN(CCSc1ccc(O)cc1)c1ccccc1 [Compound 15, 4-((2-(ethyl(phenyl)amino)ethyl)thio)phenol] |  |
| 44 | CN(CCCSc1ccc(O)cc1)c1ccccc1 [Compound 16, 4-((3-(methyl(phenyl)amino)propyl)thio)phenol] |  |
| 108 | CCN(CC(=O)Nc1ccc(O)cc1)c1ccccc1 [Compound 17, 2-(ethyl(phenyl)amino)-N-(4-hydroxyphenyl)acetamide] |  |
| 44 | CCN(CCOc1cccc(O)c1)c1ccccc1 [Compound 18, 3-(2-(ethyl(phenyl)amino)ethoxy)phenol] |  |
| 77 | CCN(CCOc1ccccc1O)c1ccccc1 [Compound 19, 2-(2-(ethyl(phenyl)amino)ethoxy)phenol] |  |
| > 125 | CCN(CCOc1ccc(N)cc1)c1ccccc1 [Compound 20, N-(2-(4-aminophenoxy)ethyl)-N-ethylaniline] |  |
| 45 | CCN(CCOc1ccc(NC(C)=O)cc1)c1ccccc1 [Compound 21, N-(4-(2-(ethyl(phenyl)amino)ethoxy)phenyl)acetamide] |  |
| > 125 | CCN(CCOc1ccc(N2CCCCC2)cc1)c1ccccc1 [Compound 22, N-ethyl-N-(2-(4-(piperidin-1-yl)phenoxy)ethyl)aniline] |  |
| > 125 | CCN(CCOc1ccc(OC)cc1)c1ccccc1 [Compound 24, N-ethyl-N-(2-(4-methoxyphenoxy)ethyl)aniline] |  |
| 15 | COc1ccc(N(CCOc2ccc(O)cc2)CCOc2ccc(O)cc2)cc1 [Compound 26, 4,4′-((((4-methoxyphenyl)azanediyl)bis(ethane-2,1-diyl))bis(oxy))diphenol] |  |
| 77 | COC(=O)CCCc1ccc(N(CCOc2ccc(O)cc2)CCOc2ccc(O)cc2)cc1 [Compound 27, methyl 4-(4-(bis(2-(4-hydroxyphenoxy)ethyl)amino)phenyl)butanoate] |  |
| 67 | O=C(O)CCCc1ccc(N(CCOc2ccc(O)cc2)CCOc2ccc(O)cc2)cc1 [Compound 28, 4-(4-(bis(2-(4-hydroxyphenoxy)ethyl)amino)phenyl)butanoic acid] |  |
| 12 | CC(=O)Oc1ccc(OCCN(CCOc2ccc(OC(C)=O)cc2)c2ccccc2)cc1 [Compound 29, (((phenylazanediyl)bis(ethane-2,1-diyl))bis(oxy))bis(4,1-phenylene) diacetate] |  |
| 161 | Oc1ccc(O)cc1 [Hydroquinone, reference compound] |  |
|  | Nc1ccn([C@@H]2O[C@H](CO)[C@@H](O)[C@@H]2O)c(=O)n1 [ara-C, cytosine arabinoside] | IC50 [2]: 0.59 ± 0.09 µM; IC50 (MA9.3 AML cells): 0.92 ± 0.03 µM |
|  | O=C(O)CCCc1ccc(N(CCCl)CCCl)cc1 [chlorambucil] | IC50 ([2]; Homo sapiens): 11 ± 1 µM; IC50 (MA9.3 AML cells; Homo sapiens): 8.7 ± 0.3 µM |
|  | N.N.[Cl][Pt][Cl] [cisplatin] | IC50 [2]: 15 ± 2 µM; IC50 (MA9.3 AML cells): 14 ± 0.7 µM; full-length extension product yield (392-nucleotide dsDNA): no full-length extension product |
|  | COc1cccc2c1C(=O)c1c(O)c3c(c(O)c1C2=O)C[C@@](O)(C(=O)CO)C[C@@H]3O[C@H]1C[C@H](N)[C@H](O)[C@H](C)O1 [doxorubicin] | IC50 ([2]; Homo sapiens): 0.076 ± 0.018 µM; IC50 (MA9.3 AML cells; Homo sapiens): 0.086 ± 0.05 µM |

| SMILES | IC50 (HeLa cells) [µM] | other results |
| --- | --- | --- |
| CCN(CCOc1ccc(O)cc1)c1ccccc1 [Compound 3, 4-(2-(ethyl(phenyl)amino)ethoxy)phenol] | 23 | half-life ([1]; one-electron oxidant Na2Ir2Cl6 added, addition of one-electron oxidant Na2Ir2Cl6): 0.4 ± 0.2 h; half-life ([1]; oxidation by copper chloride-hydrogen peroxide (hydroxyl radical)): 12.1 h; half-life ([1]; phosphate buffer, no oxidant, assuming first order kinetics): 693 ± 42 h; death on Day 1 (Drosophila; Drosophila lacking Ercc1 expression (da-GAL4/UAS-Ercc1RNAi)): 60%; death on Day 1 (Drosophila; control flies with wild-type Ercc1 expression (da-GAL4/+)): 10% |
| CN(CCCCOc1ccc(O)cc1)c1ccccc1 [Compound 11, 4-(4-(methyl(phenyl)amino)butoxy)phenol] | 8 |  |
| CCN(CCCCOc1ccc(O)cc1)c1ccccc1 [Compound 12, 4-(4-(ethyl(phenyl)amino)butoxy)phenol] | 14 |  |
| O=C1C=CC(=O)C=C1 [benzoquinone, reference compound] | 227 |  |
